# Measured values published in PubChem BioAssay (NCI).
#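 All cell lines were grown in 96-well plates and treated with compound for 48 hours. TGI is the concentration that stops growth completely.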
# Key:
# Assay in all cases: growth of human tumour cells (NCI), 48 h
# KM12 colon = system: KM12 colon
# MOLT-4 leukemia = system: MOLT-4 leukemia
# CAKI-1 renal = system: CAKI-1 renal
# ACHN renal = system: ACHN renal
# BT-549 breast = system: BT-549 breast
# TK-10 renal = system: TK-10 renal
# NCI-H522 lung = system: NCI-H522 lung
# HT29 colon = system: HT29 colon
# MALME-3M melanoma = system: MALME-3M melanoma
# SK-MEL-2 melanoma = system: SK-MEL-2 melanoma
# COLO 205 colon = system: COLO 205 colon
# SN12C renal = system: SN12C renal
# SNB-19 CNS = system: SNB-19 CNS
# NCI-H460 lung = system: NCI-H460 lung
# SF-268 CNS = system: SF-268 CNS
# RPMI-8226 leukemia = system: RPMI-8226 leukemia
# SK-MEL-28 melanoma = system: SK-MEL-28 melanoma
# K-562 leukemia = system: K-562 leukemia
# PC-3 prostate = system: PC-3 prostate
# IGROV1 ovarian = system: IGROV1 ovarian
# A498 renal = system: A498 renal
# NCI-H226 lung = system: NCI-H226 lung
# MDA-MB-231 breast = system: MDA-MB-231 breast
# UACC-257 melanoma = system: UACC-257 melanoma
# HCC-2998 colon = system: HCC-2998 colon
# HCT-116 colon = system: HCT-116 colon
# DU-145 prostate = system: DU-145 prostate
# UACC-62 melanoma = system: UACC-62 melanoma
# A549 NSCLC = system: A549 NSCLC
# NCI-H23 lung = system: NCI-H23 lung
# MDA-N = system: MDA-N
# 786-0 renal = system: 786-0 renal
# M14 melanoma = system: M14 melanoma
# U251 CNS = system: U251 CNS
# EKVX NSCLC = system: EKVX NSCLC
# HOP-92 NSCLC = system: HOP-92 NSCLC
# NCI/ADR-RES ovarian = system: NCI/ADR-RES ovarian
# HCT-15 colon = system: HCT-15 colon
# MCF7 breast = system: MCF7 breast
# RXF 393 renal = system: RXF 393 renal
# OVCAR-4 ovarian = system: OVCAR-4 ovarian
# UO-31 renal = system: UO-31 renal
# OVCAR-5 ovarian = system: OVCAR-5 ovarian
# SK-MEL-5 melanoma = system: SK-MEL-5 melanoma
# MDA-MB-435 = system: MDA-MB-435
# SW-620 colon = system: SW-620 colon
# SK-OV-3 ovarian = system: SK-OV-3 ovarian
# HL-60(TB) leukemia = system: HL-60(TB) leukemia
# LOX IMVI melanoma = system: LOX IMVI melanoma
# HS 578T breast = system: HS 578T breast
# OVCAR-3 ovarian = system: OVCAR-3 ovarian
# OVCAR-8 ovarian = system: OVCAR-8 ovarian
# CCRF-CEM leukemia = system: CCRF-CEM leukemia
# SR leukemia = system: SR leukemia
# SF-295 CNS = system: SF-295 CNS
# HOP-62 NSCLC = system: HOP-62 NSCLC
# T-47D breast = system: T-47D breast
# SNB-75 CNS = system: SNB-75 CNS
# SF-539 CNS = system: SF-539 CNS
smiles,measurement,setting,value
Nn1c(CCCCCCCCc2nnc(COc3ccc(Cl)cc3Cl)n2N)nnc1COc1ccc(Cl)cc1Cl,TGI,KM12 colon,> 100 µM
same,TGI,MOLT-4 leukemia,> 100 µM
same,TGI,CAKI-1 renal,> 100 µM
same,TGI,ACHN renal,> 100 µM
same,TGI,BT-549 breast,> 100 µM
same,TGI,TK-10 renal,> 100 µM
same,TGI,NCI-H522 lung,59.7 µM
same,TGI,HT29 colon,> 100 µM
same,TGI,MALME-3M melanoma,> 100 µM
same,TGI,SK-MEL-2 melanoma,> 100 µM
same,TGI,COLO 205 colon,70 µM
same,TGI,SN12C renal,> 100 µM
same,TGI,SNB-19 CNS,> 100 µM
same,TGI,NCI-H460 lung,> 100 µM
same,TGI,SF-268 CNS,> 100 µM
same,TGI,RPMI-8226 leukemia,> 100 µM
same,TGI,SK-MEL-28 melanoma,> 100 µM
same,TGI,K-562 leukemia,> 100 µM
same,TGI,PC-3 prostate,> 100 µM
same,TGI,IGROV1 ovarian,66 µM
same,TGI,A498 renal,> 100 µM
same,TGI,NCI-H226 lung,> 100 µM
same,TGI,MDA-MB-231 breast,> 100 µM
same,TGI,UACC-257 melanoma,> 100 µM
same,TGI,HCC-2998 colon,> 100 µM
same,TGI,HCT-116 colon,86.8 µM
same,TGI,DU-145 prostate,> 100 µM
same,TGI,UACC-62 melanoma,> 100 µM
same,TGI,A549 NSCLC,> 100 µM
same,TGI,NCI-H23 lung,> 100 µM
same,TGI,MDA-N,> 100 µM
same,TGI,786-0 renal,> 100 µM
same,TGI,M14 melanoma,> 100 µM
same,TGI,U251 CNS,> 100 µM
same,TGI,EKVX NSCLC,> 100 µM
same,TGI,HOP-92 NSCLC,> 100 µM
same,TGI,NCI/ADR-RES ovarian,> 100 µM
same,TGI,HCT-15 colon,> 100 µM
same,TGI,MCF7 breast,> 100 µM
same,TGI,RXF 393 renal,> 100 µM
same,TGI,OVCAR-4 ovarian,> 100 µM
same,TGI,UO-31 renal,> 100 µM
same,TGI,OVCAR-5 ovarian,> 100 µM
same,TGI,SK-MEL-5 melanoma,> 100 µM
same,TGI,MDA-MB-435,> 100 µM
same,TGI,SW-620 colon,> 100 µM
COc1cc2c(cc1OC)[C@@H]1[C@H](C#N)C(=O)C(C)(C)N1CC2,TGI,KM12 colon,> 100 µM
same,TGI,MOLT-4 leukemia,> 100 µM
same,TGI,CAKI-1 renal,> 100 µM
same,TGI,ACHN renal,> 100 µM
same,TGI,BT-549 breast,> 100 µM
same,TGI,TK-10 renal,> 100 µM
same,TGI,NCI-H522 lung,> 100 µM
same,TGI,HT29 colon,> 100 µM
same,TGI,MALME-3M melanoma,> 100 µM
same,TGI,COLO 205 colon,> 100 µM
same,TGI,SN12C renal,> 100 µM
same,TGI,SNB-19 CNS,> 100 µM
same,TGI,NCI-H460 lung,> 100 µM
same,TGI,RPMI-8226 leukemia,> 100 µM
same,TGI,SK-MEL-28 melanoma,> 100 µM
same,TGI,K-562 leukemia,> 100 µM
same,TGI,PC-3 prostate,> 100 µM
same,TGI,IGROV1 ovarian,> 100 µM
same,TGI,A498 renal,> 100 µM
same,TGI,SK-OV-3 ovarian,> 100 µM
same,TGI,NCI-H226 lung,> 100 µM
same,TGI,MDA-MB-231 breast,> 100 µM
same,TGI,UACC-257 melanoma,> 100 µM
same,TGI,HCC-2998 colon,> 100 µM
same,TGI,HCT-116 colon,> 100 µM
same,TGI,HL-60(TB) leukemia,> 100 µM
same,TGI,DU-145 prostate,> 100 µM
same,TGI,UACC-62 melanoma,> 100 µM
same,TGI,A549 NSCLC,> 100 µM
same,TGI,NCI-H23 lung,> 100 µM
same,TGI,LOX IMVI melanoma,> 100 µM
same,TGI,MDA-N,> 100 µM
same,TGI,HS 578T breast,> 100 µM
same,TGI,786-0 renal,> 100 µM
same,TGI,M14 melanoma,> 100 µM
same,TGI,OVCAR-3 ovarian,> 100 µM
same,TGI,U251 CNS,> 100 µM
same,TGI,EKVX NSCLC,> 100 µM
same,TGI,OVCAR-8 ovarian,> 100 µM
same,TGI,HOP-92 NSCLC,> 100 µM
same,TGI,NCI/ADR-RES ovarian,> 100 µM
same,TGI,CCRF-CEM leukemia,> 100 µM
same,TGI,HCT-15 colon,> 100 µM
same,TGI,MCF7 breast,> 100 µM
same,TGI,OVCAR-4 ovarian,> 100 µM
same,TGI,UO-31 renal,> 100 µM
same,TGI,SR leukemia,> 100 µM
same,TGI,SF-295 CNS,> 100 µM
same,TGI,OVCAR-5 ovarian,> 100 µM
same,TGI,SK-MEL-5 melanoma,> 100 µM
same,TGI,MDA-MB-435,> 100 µM
same,TGI,SW-620 colon,> 100 µM
COc1ccc(/C=c2/sc3n(c2=O)C(c2ccccc2)C2(O)CCCCC2N=3)cc1 (stereo unspecified),TGI,HOP-62 NSCLC,> 12.5 µM
same,TGI,MOLT-4 leukemia,> 12.5 µM
same,TGI,CAKI-1 renal,> 12.5 µM
same,TGI,ACHN renal,> 12.5 µM
same,TGI,BT-549 breast,> 12.5 µM
same,TGI,TK-10 renal,> 12.5 µM
same,TGI,NCI-H522 lung,> 12.5 µM
same,TGI,HT29 colon,> 12.5 µM
same,TGI,MALME-3M melanoma,> 12.5 µM
same,TGI,SK-MEL-2 melanoma,> 12.5 µM
same,TGI,SNB-19 CNS,> 12.5 µM
same,TGI,NCI-H460 lung,> 12.5 µM
same,TGI,SF-268 CNS,> 12.5 µM
same,TGI,T-47D breast,> 12.5 µM
same,TGI,RPMI-8226 leukemia,> 12.5 µM
same,TGI,SK-MEL-28 melanoma,> 12.5 µM
same,TGI,K-562 leukemia,> 12.5 µM
same,TGI,PC-3 prostate,> 12.5 µM
same,TGI,IGROV1 ovarian,> 12.5 µM
same,TGI,SNB-75 CNS,> 12.5 µM
same,TGI,NCI-H226 lung,> 12.5 µM
same,TGI,UACC-257 melanoma,> 12.5 µM
same,TGI,HCC-2998 colon,> 12.5 µM
same,TGI,HCT-116 colon,> 12.5 µM
same,TGI,HL-60(TB) leukemia,> 12.5 µM
same,TGI,UACC-62 melanoma,> 12.5 µM
same,TGI,A549 NSCLC,> 12.5 µM
same,TGI,NCI-H23 lung,> 12.5 µM
same,TGI,LOX IMVI melanoma,> 12.5 µM
same,TGI,MDA-N,> 12.5 µM
same,TGI,786-0 renal,> 12.5 µM
same,TGI,M14 melanoma,> 12.5 µM
same,TGI,OVCAR-3 ovarian,> 12.5 µM
same,TGI,U251 CNS,> 12.5 µM
same,TGI,OVCAR-8 ovarian,> 12.5 µM
same,TGI,CCRF-CEM leukemia,> 12.5 µM
same,TGI,MCF7 breast,> 12.5 µM
same,TGI,OVCAR-4 ovarian,> 12.5 µM
same,TGI,UO-31 renal,> 12.5 µM
same,TGI,SR leukemia,> 12.5 µM
same,TGI,OVCAR-5 ovarian,> 12.5 µM
same,TGI,SK-MEL-5 melanoma,> 12.5 µM
same,TGI,MDA-MB-435,> 12.5 µM
same,TGI,SW-620 colon,> 12.5 µM
c1cc2c(cc1NC1=NCCO1)CCC2,TGI,HOP-62 NSCLC,> 10 µM
same,TGI,KM12 colon,> 10 µM
same,TGI,MOLT-4 leukemia,> 10 µM
same,TGI,TK-10 renal,> 10 µM
same,TGI,HT29 colon,> 10 µM
same,TGI,MALME-3M melanoma,> 10 µM
same,TGI,SK-MEL-2 melanoma,> 10 µM
same,TGI,COLO 205 colon,> 10 µM
same,TGI,SN12C renal,> 10 µM
same,TGI,SNB-19 CNS,7.72 µM
same,TGI,SF-268 CNS,> 10 µM
same,TGI,T-47D breast,> 10 µM
same,TGI,RPMI-8226 leukemia,> 10 µM
same,TGI,SK-MEL-28 melanoma,> 10 µM
same,TGI,K-562 leukemia,> 10 µM
same,TGI,PC-3 prostate,> 10 µM
same,TGI,IGROV1 ovarian,> 10 µM
same,TGI,SNB-75 CNS,> 10 µM
same,TGI,SK-OV-3 ovarian,> 10 µM
same,TGI,HCC-2998 colon,> 10 µM
same,TGI,HCT-116 colon,> 10 µM
same,TGI,HL-60(TB) leukemia,> 10 µM
same,TGI,UACC-62 melanoma,> 10 µM
same,TGI,A549 NSCLC,> 10 µM
same,TGI,NCI-H23 lung,> 10 µM
same,TGI,LOX IMVI melanoma,> 10 µM
same,TGI,MDA-N,> 10 µM
same,TGI,HS 578T breast,> 10 µM
same,TGI,786-0 renal,> 10 µM
same,TGI,OVCAR-3 ovarian,> 10 µM
same,TGI,EKVX NSCLC,> 10 µM
same,TGI,OVCAR-8 ovarian,> 10 µM
same,TGI,HOP-92 NSCLC,> 10 µM
same,TGI,CCRF-CEM leukemia,> 10 µM
same,TGI,SF-539 CNS,> 10 µM
same,TGI,HCT-15 colon,> 10 µM
same,TGI,MCF7 breast,> 10 µM
same,TGI,RXF 393 renal,> 10 µM
same,TGI,OVCAR-4 ovarian,> 10 µM
same,TGI,SR leukemia,> 10 µM
same,TGI,SF-295 CNS,> 10 µM
same,TGI,SK-MEL-5 melanoma,> 10 µM
same,TGI,MDA-MB-435,> 10 µM
same,TGI,SW-620 colon,> 10 µM
